Data set [1] is described as follows: Metabolic stability in rhesus monkey hepatocytes. Format: ADME, cell-based, Macaca mulatta, Hepatocyte.
A short description of data set [2]: Metabolic stability in cynomolgus monkey hepatocytes. The class given is ADME, cell-based, Macaca fascicularis, Hepatocyte.
Data set [3] deals with Hepatocyte. Description: Metabolic stability in Sprague-Dawley rat hepatocytes. Format: ADME, cell-based.
The nature of data set [4]: Metabolic stability in Beagle dog hepatocytes. The class given is ADME, cell-based, Canis lupus familiaris, Hepatocyte.
The test system of data set [5] is Hepatocyte. Description: Metabolic stability in human hepatocytes. The class given is ADME, cell-based.
The nature of data set [6]: in vivo. To be noted: Sprague-Dawley, rat, iv, 5 mg/kg.
Data set [7] in a line: in vivo. The note with it: Sprague-Dawley, rat, po, 10 mg/kg.
Data set [8] is described as follows: in vivo. To be noted: Sprague-Dawley, rat.
The nature of data set [9]: Oral bioavailability in Beagle dog at 1 mg/kg. The note with it: in vivo. The class given is ADME, organism-based, Canis lupus familiaris.
Data set [10] can be described thus: Oral bioavailability in rhesus monkey at 1 mg/kg. The class given is ADME, organism-based, Macaca mulatta. To be noted: in vivo.
Data set [11] is described as follows: Terminal half life in Beagle dog at 1 mg/kg, po and 0.5 mg/kg, iv. Format: ADME, organism-based, Canis lupus familiaris. To be noted: in vivo.
Data set [12] is described as follows: Terminal half life in cynomolgus monkey at 1 mg/kg, po and 0.5 mg/kg, iv. Format: ADME, organism-based, Macaca fascicularis. The note with it: in vivo.
Data set [13] is described as follows: Clearance in Beagle dog at 1 mg/kg, po and 0.5 mg/kg, iv. Format: ADME, organism-based, Canis lupus familiaris. To be noted: in vivo.
Data set [14] in a line: Oral bioavailability in cynomolgus monkey at 1 mg/kg. Format: ADME, organism-based, Macaca fascicularis. To be noted: in vivo.
Data set [15] can be described thus: Clearance in rhesus monkey at 1 mg/kg, po and 0.5 mg/kg, iv. The class given is ADME, organism-based, Macaca fascicularis. To be noted: cynomolgus monkey, in vivo.
Data set [16] can be described thus: Clearance in cynomolgus monkey at 1 mg/kg, po and 0.5 mg/kg, iv. The note with it: in vivo. The class given is ADME, organism-based, Macaca fascicularis.
Data set [17] in a line: Terminal half life in rhesus monkey at 1 mg/kg, po and 0.5 mg/kg, iv. The class given is ADME, organism-based, Macaca fascicularis. The note with it: cynomolgus monkey, in vivo.
Data set [18] is described as follows: Volume of distribution at steady state in rhesus monkey at 1 mg/kg, po and 0.5 mg/kg, iv. The note with it: cynomolgus monkey, in vivo, read-out: Vdss. The class given is ADME, organism-based, Macaca fascicularis.
Data set [19] is described as follows: Volume of distribution at steady state in Beagle dog at 1 mg/kg, po and 0.5 mg/kg, iv. The class given is ADME, organism-based, Canis lupus familiaris. The note with it: in vivo, read-out: Vdss.
Data set [20] in a line: Volume of distribution at steady state in Sprague-Dawley rat at 10 mg/kg, po and 5 mg/kg, iv. The class given is ADME, organism-based. To be noted: in vivo, read-out: Vdss.
Data set [21] in a line: Volume of distribution at steady state in cynomolgus monkey at 1 mg/kg, po and 0.5 mg/kg, iv. To be noted: in vivo, read-out: Vdss. The class given is ADME, organism-based, Macaca fascicularis.

By half-life is commonly meant the time in which the quantity being followed falls by half.

Regarding `CN([C@@H]1CCc2c(CC(=O)O[C@@H]3O[C@H](C(=O)O)[C@@H](O)[C@H](O)[C@H]3O)c3ccccc3n2C1)S(=O)(=O)c1ccc(F)cc1`, the Stability result in data set [1], in data set [2], in [3], in data set [4] and in data set [5] was “Stable” in each case.

In the case of `CN([C@@H]1CCc2c(CC(=O)O)c3cccc(F)c3n2C1)S(=O)(=O)c1ccc(F)cc1`, the clearance in [6] turned out to be 0.4 mL/min/kg. In [7], the bioavailability was 62%. Also, the half-life in data set [8] is 16 h.

On to `CN([C@@H]1CCc2c(CC(=O)O)c3ccccc3n2C1)S(=O)(=O)c1ccc(F)cc1` [MK-7246], for which the bioavailability in data set [9] worked out at 5.6%; in [10], 57%; in data set [7], 107%; in data set [14] it was 10%. The Stability result in [1], in [2], in data set [3], in data set [4] and in data set [5] was “Stable” throughout. Also, the half-life in [11] was 8.4 h; in [12] it was 11 h; in data set [17] it was 8.1 h; in data set [8] it was 5.6 h. Also, the clearance in [13] came out at 15 mL/min/kg; in [6], 2.2 mL/min/kg; in data set [15] it was 6.9 mL/min/kg; in data set [16] it was 4.8 mL/min/kg. For the same molecule, the Vd in data set [18] came to 2.6 L/kg; in data set [19], 2.3 L/kg; in data set [20], 0.98 L/kg; in data set [21], 0.5 L/kg.

Source of the values: ChEMBL document CHEMBL1641519, “Discovery of MK-7246, a selective CRTH2 antagonist for the treatment of respiratory diseases” (Bioorg Med Chem Lett, 2011).
